Measurements taken from ChEMBL document CHEMBL2375321, “Discovery of 3,3'-diindolylmethanes as potent antileishmanial agents” (Eur J Med Chem, 2013).
≈ marks a conversion by molar mass, not a printed value. Calls of active or inactive are those of the source. Unless noted, the calls are words filed in the database; no cut-off is given here.

Key:
[1] = tested on: Mycobacterium intracellulare; assay: Antibacterial activity against Mycobacterium intracellulare ATCC 23068 by alamar blue assay; format: functional, organism-based
Leishmania donovani [2] = assay: Antileishmanial activity against axenic amastigote of Leishmania donovani after 72 hrs by alamar blue assay; format: functional, organism-based
Candida albicans = assay: Antifungal activity against Candida albicans ATCC 90028 by CLSI method; format: functional, organism-based
Staphylococcus aureus [3] = assay: Antibacterial activity against methicillin-resistant Staphylococcus aureus ATCC 33591 by CLSI method; format: functional, organism-based
Aspergillus fumigatus = assay: Antifungal activity against Aspergillus fumigatus ATCC 204305 by CLSI method; format: functional, organism-based
Leishmania donovani [4] = assay: Antileishmanial activity against promastigote of Leishmania donovani after 72 hrs by alamar blue assay; format: functional, organism-based
Cryptococcus neoformans = assay: Antifungal activity against Cryptococcus neoformans ATCC 90113 by CLSI method; format: functional, organism-based
Staphylococcus aureus [5] = assay: Antibacterial activity against Staphylococcus aureus ATCC 29213 by CLSI method; format: functional, organism-based
Vero = assay: Cytotoxicity against african green monkey Vero cells up to 4.6 ug/ml after 48 hrs by neutral red assay; format: cell-based; details: chlorocebus sabaeus
[6] = Leishmania donovani, 72 h, read-out: IC50
[7] = Staphylococcus aureus, ATCC 33591
[8] = Staphylococcus aureus, ATCC 33591, read-out: IC50

SMILES	IC50 [1]	MBC [1]	MIC [1]	IC90 (Leishmania donovani [2]; Leishmania donovani, 72 h) [µM]	IC50 (Leishmania donovani [2]; [6]) [µM]	IC50 (Staphylococcus aureus [3]; [8]) [µM]	IC90 (Leishmania donovani [4]; Leishmania donovani, 72 h) [µM]	IC50 (Leishmania donovani [4]; [6]) [µM]	IC50 (Staphylococcus aureus [5]) [µM]	MBC (Staphylococcus aureus [5])	MIC (Staphylococcus aureus [5])	Activity (Vero)	IC50 (Leishmania donovani [2])	IC90 (Leishmania donovani [2])	MBC (Staphylococcus aureus [3])	also measured
Clc1ccc(C(c2c[nH]c3ccccc23)c2c[nH]c3ccccc23)cc1	Not Active	inactive	inactive	77	42	6.12	39	26.7	3.79	inactive	7.02 µM (≈ 2.51 µg/mL)	Non-toxic				Activity (Candida albicans): inactive; MBC (Staphylococcus aureus [3]; [7]): 56.2 µM (≈ 20.1 µg/mL); MIC (Staphylococcus aureus [3]; [7]): 14 µM (≈ 5 µg/mL); Activity (Aspergillus fumigatus): inactive; IC50 (Cryptococcus neoformans): 5.56 µM; MFC (Cryptococcus neoformans): 14 µM (≈ 5.01 µg/mL); MIC (Cryptococcus neoformans): 14 µM (≈ 5.01 µg/mL)
COc1ccc2[nH]cc(C(c3ccc(O)c(OC)c3)c3c[nH]c4ccc(OC)cc34)c2c1												Non-toxic	Not Active	inactive		IC50 (Leishmania donovani [4]): Not Active; IC90 (Leishmania donovani [4]): inactive
COc1ccc2[nH]cc(C(c3cccc4ccccc34)c3c[nH]c4ccc(OC)cc34)c2c1	Not Active	inactive	inactive		33.2		82.9	66.5	39.7	inactive	inactive	Non-toxic		inactive	inactive	IC50 (Staphylococcus aureus [3]): Not Active; MIC (Staphylococcus aureus [3]): inactive
COc1ccc2[nH]cc(C(c3ccc(Br)cc3)c3c[nH]c4ccc(OC)cc34)c2c1							58.5	32.7				Non-toxic	Not Active	inactive		
COc1ccc2[nH]cc(C(c3cccs3)c3c[nH]c4ccc(OC)cc34)c2c1				84.8	59		65.8	38.1				Non-toxic				
COc1ccc(C(c2c[nH]c3ccccc23)c2c[nH]c3ccccc23)cc1O	Not Active	inactive	inactive	79.5	42.2	12.3	95.6	85	7.47	inactive	13.6 µM (≈ 5.01 µg/mL)	Non-toxic			inactive	Activity (Candida albicans): inactive; MIC (Staphylococcus aureus [3]; [7]): 27.2 µM (≈ 10 µg/mL); Activity (Aspergillus fumigatus): inactive; IC50 (Cryptococcus neoformans): 16.9 µM; MFC (Cryptococcus neoformans): 27.2 µM (≈ 10 µg/mL); MIC (Cryptococcus neoformans): 27.2 µM (≈ 10 µg/mL)
O=[N+]([O-])c1ccc(C(c2c[nH]c3ccccc23)c2c[nH]c3ccccc23)cc1				72.3	40.8		54.3	15.9				Non-toxic				
Oc1ccccc1C(c1c[nH]c2ccccc12)c1c[nH]c2ccccc12	Not Active	inactive	inactive		95.9	36.2	75.7	41.1	17.2	inactive	59.2 µM (≈ 20 µg/mL)	Non-toxic		inactive	inactive	Activity (Candida albicans): inactive; MIC (Staphylococcus aureus [3]): inactive; Activity (Aspergillus fumigatus): inactive; IC50 (Cryptococcus neoformans): 14.6 µM; MFC (Cryptococcus neoformans): inactive; MIC (Cryptococcus neoformans): 59.2 µM (≈ 20 µg/mL)
C[C@@H]1[C@H](O)[C@@H](C)/C=C/C=C/C=C/C=C/C=C/C=C/C=C/[C@H](O[C@@H]2O[C@H](C)[C@@H](O)[C@H](N)[C@@H]2O)C[C@@H]2O[C@](O)(C[C@@H](O)C[C@@H](O)[C@H](O)CC[C@@H](O)C[C@@H](O)CC(=O)O[C@H]1C)C[C@H](O)[C@H]2C(=O)O [AMPHOTERICIN B]				[…]			0.35									Activity (Candida albicans): inactive; Activity (Aspergillus fumigatus): inactive; IC50 (Cryptococcus neoformans): 0.85 µM; MFC (Cryptococcus neoformans): 1.35 µM (≈ 1.25 µg/mL); MIC (Cryptococcus neoformans): 1.35 µM (≈ 1.25 µg/mL)
Clc1cccc(Cl)c1C(c1c[nH]c2ccc(I)cc12)c1c[nH]c2ccc(I)cc12												Non-toxic	Not Active	inactive		IC50 (Leishmania donovani [4]): Not Active; IC90 (Leishmania donovani [4]): inactive
O=[N+]([O-])c1ccc(C(c2c[nH]c3ccc(I)cc23)c2c[nH]c3ccc(I)cc23)o1	Not Active	inactive	inactive	28.9	25.3	11.3	6.22	3.02	7.52	16.4 µM (≈ 9.99 µg/mL)	16.4 µM (≈ 9.99 µg/mL)	Non-toxic			inactive	MIC (Staphylococcus aureus [3]; [7]): 32.8 µM (≈ 20 µg/mL)
Ic1ccc2[nH]cc(C(c3cccc4ccccc34)c3c[nH]c4ccc(I)cc34)c2c1												Non-toxic	Not Active	inactive		IC50 (Leishmania donovani [4]): Not Active; IC90 (Leishmania donovani [4]): inactive
COc1ccc(C(c2c[nH]c3ccccc23)c2c[nH]c3ccccc23)cc1Br	Not Active	inactive	inactive			31.5		82.9	7.84	inactive	inactive	Non-toxic	Not Active	inactive	inactive	MIC (Staphylococcus aureus [3]): inactive; IC90 (Leishmania donovani [4]): inactive
COc1cc(C(c2c[nH]c3ccccc23)c2c[nH]c3ccccc23)ccc1O					75		98.9	86				Non-toxic		inactive		
